Measured values: ChEMBL document CHEMBL4304757, “Synthetic heterocyclic candidates as promising α-glucosidase inhibitors: An overview” (Eur J Med Chem, 2019)

Experiments:
Alpha glucosidase [1] = target: T1, Alpha glucosidase (Homo sapiens, UniProt O43451+P10253+P14410+Q2M2H8); assay: Inhibition of alpha-glucosidase (unknown origin) using p-nitrophenyl-alpha-d-glucopyranoside as substrate preincubated for 5 mins followed by substrate addition measured after 30 mins; type: protein assay
MDA-MB-231 = assay: Cytotoxicity against human MDA-MB-231 cells assessed as reduction in cell viability at 100 uM relative to control; type: functional, cell-based; conditions: for IC50: Homo sapiens, MDA-MB-231
Alpha glucosidase [2] = target: T1, Alpha glucosidase; assay: Inhibition of alpha-glucosidase (unknown origin) using p-nitrophenyl-alpha-d-glucopyranoside as substrate preincubated for 10 mins followed by substrate addition measured after 20 mins; type: protein assay
[3] = Inhibition of yeast alpha-glucosidase using p-nitrophenyl-alpha-d-glucopyranoside as substrate preincubated for 15 mins followed by substrate addition measured after 20 mins; parameters: species or system Saccharomyces cerevisiae
Alpha glucosidase [4] = target: T1, Alpha glucosidase; assay: Inhibition of alpha-glucosidase (unknown origin) using p-nitro phenyl glucopyranoside as substrate preincubated for 10 mins followed by substrate addition measured after 10 mins; type: protein assay
[5] = Inhibition of yeast alpha-glucosidase using p-nitrophenyl-alpha-d-glucopyranoside as substrate preincubated for 15 mins followed by substrate addition measured after 30 mins; parameters: species or system Saccharomyces cerevisiae
[6] = Inhibition of yeast alpha-glucosidase using p-nitrophenyl-alpha-d-glucopyranoside as substrate preincubated with enzyme followed by substrate addition measured after 30 mins; parameters: species or system Saccharomyces cerevisiae
[7] = Inhibition of yeast alpha-glucosidase; parameters: species or system Saccharomyces cerevisiae
[8] = Inhibition of mouse alpha-glucosidase

O=C(N/N=C1\S/C(=C\c2ccc(F)cc2)C(=O)N1c1ccccc1Cl)c1cc2ccccc2oc1=O
IC50 (Alpha glucosidase [1]): 0.09 to 1.6 µM
IC50 (MDA-MB-231): 0.09 to 1.6 µM

Nc1c(C(c2ccc([N+](=O)[O-])cc2)c2c(N)c3ccccc3oc2=O)c(=O)oc2ccccc12
IC50 (Alpha glucosidase [2]): 20 to 180 µM

Fc1ccc(-c2nc3ccc(N4CCOCC4)cc3[nH]2)cc1Br
IC50 [3]: 3.4 to 20 µM

O=C1NC(=O)/C(=C\c2ccc(-n3ncc4ccccc43)cc2)S1
IC50 (Alpha glucosidase [4]): 0.55 to 35 µM

Cc1[nH]nc2c1C(c1ccc(O)c(OCc3ccccc3)c1)C(C#N)=C(N)O2 (configuration not stated)
IC50 [5]: 60 to 180 µM

CC1=NN(c2ccc(C)cc2)C(=O)/C1=C/c1cn(-c2ccccc2)nc1-c1ccc(-c2ccccc2)cc1
IC50 [6]: 2.1 to 289 µM

CN1CCN(c2ccc3nc(-c4ccc(O)c(O)c4)[nH]c3c2)CC1
IC50 [3]: 2.2 to 21 µM

Cc1ccc(N2C(=O)/C(=C/c3ccc(F)cc3)S/C2=N\NC(=O)c2cc3ccccc3oc2=O)cc1C
IC50 (Alpha glucosidase [1]): 0.09 to 1.6 µM
IC50 (MDA-MB-231): 0.09 to 1.6 µM

O=C1/C(=C/c2cn(-c3ccccc3)nc2-c2cc3cc(Br)ccc3oc2=O)C(c2ccccc2)=NN1c1ccccc1
IC50 [6]: 2.1 to 289 µM

O=C1NC(=O)/C(=C\c2ccc(-n3ccc4c(Nc5ccccc5OC(F)(F)F)ccnc43)cc2)S1
IC50 (Alpha glucosidase [4]): 0.55 to 35 µM

O=C1NC(=O)/C(=C\c2ccc(-n3ccc4c(Br)ccnc43)cc2)S1
IC50 (Alpha glucosidase [4]): 0.55 to 35 µM

O=C(N/N=C1\S/C(=C\c2ccc(F)cc2)C(=O)N1c1cccc(Cl)c1)c1cc2ccccc2oc1=O
IC50 (Alpha glucosidase [1]): > 100 µM
Activity (MDA-MB-231): >=76%

COc1cc(-c2nc3ccc(N4CCOCC4)cc3[nH]2)ccc1O
IC50 [3]: 3.4 to 20 µM

Cc1cccc(C(c2c(N)c3ccccc3oc2=O)c2c(N)c3ccccc3oc2=O)c1
IC50 (Alpha glucosidase [2]): 20 to 180 µM

Nc1c(C(c2ccccc2Cl)c2c(N)c3ccccc3oc2=O)c(=O)oc2ccccc12
IC50 (Alpha glucosidase [2]): 20 to 180 µM

CC1=NN(c2ccccc2)C(=O)/C1=C/c1cn(-c2ccccc2)nc1-c1ccc(-c2ccccc2)cc1
IC50 [6]: 2.1 to 289 µM

Cc1n[nH]c2c1C(c1ccc([N+](=O)[O-])cc1)C(C#N)=C(N)O2 (configuration not stated)
IC50 [5]: 54 µM

O=C(CC(c1ccc(Br)cc1)C(C(=O)Nc1ccccn1)C(=O)Nc1ccccn1)c1ccccc1 (configuration not stated)
IC50 [5]: 12 µM

CC1=NN(c2ccc(C)cc2)C(=O)/C1=C/c1cn(-c2ccccc2)nc1-c1cc2ccccc2oc1=O
IC50 [6]: 2.1 to 289 µM

Nc1c(C(c2cccc(Cl)c2)c2c(N)c3ccccc3oc2=O)c(=O)oc2ccccc12
IC50 (Alpha glucosidase [2]): 20 to 180 µM

Cc1ncc([N+](=O)[O-])n1Cn1cc(Cn2c3ccccc3c3ccccc32)nn1
IC50 [5]: 6.8 µM

Nc1c(C(c2cccc(F)c2)c2c(N)c3ccccc3oc2=O)c(=O)oc2ccccc12
IC50 (Alpha glucosidase [2]): 20 to 180 µM

Cc1ccc(C(CC(=O)c2ccccc2)C(C(=O)Nc2ccccn2)C(=O)Nc2ccccn2)cc1 (configuration not stated)
IC50 [5]: 28 µM

Cc1cccc(N2C(=O)/C(=C/c3ccc(F)cc3)S/C2=N\NC(=O)c2cc3ccccc3oc2=O)c1C
IC50 (Alpha glucosidase [1]): > 100 µM
Activity (MDA-MB-231): >=76%

Nc1c(C(c2ccccc2F)c2c(N)c3ccccc3oc2=O)c(=O)oc2ccccc12
IC50 (Alpha glucosidase [2]): 20 to 180 µM

COc1cc(-c2nc3ccc(N4CCN(C)CC4)cc3[nH]2)ccc1O
IC50 [3]: 2.2 to 21 µM

Clc1ccc(-c2nc3ccc(N4CCOCC4)cc3[nH]2)cc1
IC50 [3]: 3.4 to 20 µM

C[C@H]1O[C@H](O[C@H]2[C@H](O)[C@@H](O)[C@@H](O[C@H]3[C@H](O)[C@@H](O)C(O)O[C@@H]3CO)O[C@@H]2CO)[C@H](O)[C@@H](O)[C@@H]1N[C@H]1C=C(CO)[C@@H](O)[C@H](O)[C@H]1O (some centres not stated) [ACARBOSE]
IC50 [5]: 937 µM

O=C1NC(=O)/C(=C\c2ccc(-n3cnc4ccccc43)cc2)S1
IC50 (Alpha glucosidase [4]): 0.55 to 35 µM

CC1=NN(c2ccc(C)cc2)C(=O)/C1=C/c1cn(-c2ccccc2)nc1-c1cc2cc(Br)ccc2oc1=O
IC50 [6]: 2.1 to 289 µM

Cc1ccccc1N1C(=O)/C(=C/c2ccc(F)cc2)S/C1=N\NC(=O)c1cc2ccccc2oc1=O
IC50 (Alpha glucosidase [1]): 0.09 to 1.6 µM
Activity (MDA-MB-231): >=76%

O=C1NC(=O)/C(=C\c2ccc(-n3cc([N+](=O)[O-])cn3)cc2)S1
IC50 (Alpha glucosidase [4]): 0.55 to 35 µM

O=C1/C(=C/c2cn(-c3ccccc3)nc2-c2cc3ccccc3oc2=O)C(c2ccccc2)=NN1c1ccccc1
IC50 [6]: 2.1 to 289 µM

CC1=NN(c2ccc([N+](=O)[O-])cc2)C(=O)/C1=C/c1cn(-c2ccccc2)nc1-c1ccc(-c2ccccc2)cc1
IC50 [6]: 2.1 to 289 µM

NNC(=O)Cn1c(Cc2ccc(Cl)cc2Cl)nc2ccc([N+](=O)[O-])cc21
IC50 [3]: 10 µM

Cc1ccc(N2C(=O)/C(=C/c3ccc(F)cc3)S/C2=N\NC(=O)c2cc3ccccc3oc2=O)c(C)c1
IC50 (Alpha glucosidase [1]): 0.09 to 1.6 µM
Activity (MDA-MB-231): >=76%

Cc1cc(C)cc(N2C(=O)/C(=C/c3ccc(F)cc3)S/C2=N\NC(=O)c2cc3ccccc3oc2=O)c1
IC50 (Alpha glucosidase [1]): 0.09 to 1.6 µM
IC50 (MDA-MB-231): 0.09 to 1.6 µM

COc1ccc(/C=C/C(=O)C2=C(/C=C/c3ccc(OC)c(O)c3)Oc3[nH]c(=O)[nH]c(=O)c3C2c2ccccc2)cc1O (configuration not stated)
IC50 [7]: 97 to 119 µM
IC50 [8]: 98 to 413 µM

COc1cc(C2C(C#N)=C(N)Oc3n[nH]c(C)c32)ccc1OCc1ccccc1 (configuration not stated)
IC50 [5]: 60 to 180 µM
